This test addresses T1, HCV polymerase (Hepatitis C virus genotype 1b, UniProt P26663).
T1 construct: a region encoding NS5B (J Virol 1991 March, 65(3), 1105-13, 544 amino acids after deletion of 47 amino acids on the C-terminal); 6xHis (C); made in house; host or cells: Escherichia coli
Description: biochemical. On the set-up: species or system HCV BK strain. The text has this:
The evaluation of the HCV polymerase inhibitory activity of the compound of the present invention is explained in the following. This polymerase is an enzyme coded for by the non-structural protein region called NS5B on the genome RNA of HCV (EMBO J., 15:12-22, 1996).
Using, as a template, a cDNA clone corresponding to the full length genome RNA of HCV BK strain obtained from the blood of a patient with hepatitis C, a region encoding NS5B (J Virol 1991 March, 65(3), 1105-13, 544 amino acids after deletion of 47 amino acids on the C-terminal) was amplified by PCR. The objective gene was prepared by adding a 6 His tag {base pair encoding 6 continuous histidine (His)}to the 3′ end thereof and transformed to Escherichia coli. The Escherichia coli capable of producing the objective protein was cultured. The obtained cells were suspended in a buffer solution and crushed in a microfluidizer.
Using a synthetic primer designed based on the sequence of HCV genomic 3′ untranslated region, a DNA fragment (148 bp) containing polyU and 3′X sequence was entirely synthesized and cloned into plasmid pBluescript SK II(+) (Stratagene). The cDNA encoding full length NS5B, which was prepared in i) above, was digested with restriction enzyme KpnI to give a cDNA fragment containing the nucleotide sequence of from the restriction enzyme cleavage site to the termination codon. This cDNA fragment was inserted into the upstream of 3′ untranslated region of the DNA in pBluescript SK II(+) and ligated. The about 450 bp inserted DNA sequence was used as a template in the preparation of substrate RNA.
RNA was synthesized (37° C., 3 hr) by run-off method using this purified DNA as a template, a promoter of pBluescript SK II(+), MEGAscript RNA synthesis kit (Ambion) and T7 RNA polymerase. DNase I was added and the mixture was incubated for 1 hr. The template DNA was removed by decomposition to give a crude RNA product.
A test substance (compound of the present invention) and a reaction mixture (30 μl) having the following composition were reacted at 25° C. for 90 min.
10% Trichloroacetic acid at 4° C. and 1% sodium pyrophosphate solution (150 μl) were added to this reaction mixture to stop the reaction. The reaction mixture was left standing in ice for 15 min to insolubilize RNA. This RNA was trapped on a glass filter (Whatman GF/C and the like) upon filtration by suction. This filter was washed with a solution containing 1% trichloroacetic acid and 0.1% sodium pyrophosphate, washed with 90% ethanol and dried. A liquid scintillation cocktail (Packard) was added and the radioactivity of RNA synthesized by the enzyme reaction was measured on a liquid scintillation counter.
The HCV polymerase inhibitory activity (IC50) of the compound of the present invention was calculated from the values of radioactivity of the enzyme reaction with and without the test substance.
Reaction mixture: HCV polymerase (0.5 μg/ml) obtained in i), substrate RNA (5 μg/ml) obtained in ii), ATP (50 μM), GTP (50 μM), CTP ([…]), UTP (2 μM), [5,6-^3H]UTP (46 Ci/mmol (Amersham), 1 μCi) 20 mM Tris-HCl (pH 7.5), EDTA (1 mM), MgCl2 (5 mM), NaCl (50 mM), DTT (1 mM), BSA (0.01%)

Counter-ions that a name gives are not always drawn. Where only a bound is given, the exact number is not on record here.

T1 sequence (P26663 2420-2963): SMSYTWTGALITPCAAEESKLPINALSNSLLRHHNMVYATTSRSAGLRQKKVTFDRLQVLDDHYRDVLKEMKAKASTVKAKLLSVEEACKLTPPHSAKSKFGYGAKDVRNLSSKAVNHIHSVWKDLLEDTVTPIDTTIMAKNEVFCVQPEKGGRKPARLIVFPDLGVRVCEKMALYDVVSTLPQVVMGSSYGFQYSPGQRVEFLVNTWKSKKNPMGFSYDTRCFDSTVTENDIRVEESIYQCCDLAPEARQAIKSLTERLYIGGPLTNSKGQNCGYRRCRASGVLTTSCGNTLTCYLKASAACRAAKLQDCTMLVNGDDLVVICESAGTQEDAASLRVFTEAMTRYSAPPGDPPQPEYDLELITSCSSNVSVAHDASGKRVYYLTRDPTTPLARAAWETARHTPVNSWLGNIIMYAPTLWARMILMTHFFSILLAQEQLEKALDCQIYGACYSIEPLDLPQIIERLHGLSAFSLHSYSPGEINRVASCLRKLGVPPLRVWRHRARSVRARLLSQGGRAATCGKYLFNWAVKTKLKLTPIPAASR

The IC50 is the concentration that inhibits the measured activity by half. A low value points to greater potency in that assay. `CN(C)C(=O)CN1CCN(c2ccc(N3CCCC3=O)cc2COc2ccc3c(c2)OCCn2c-3c(C3CCCCC3)c3ccc(C(=O)O)cc32)CC1` [Example 2-27, 12-cyclohexyl-3-[2-(4-dimethylcarbamoylmethylpiperazin-1-yl)-5-(2-oxopyrrolidin-1-yl)benzyloxy]-6,7-dihydro-5-oxa-7a-azadibenzo[a,e]azulene-9-carboxylic acid dihydrochloride] yielded an IC50 below 100 nM.

As for `COc1ccc2c(c1)OCCn1c-2c(C2CCCCC2)c2ccc(C(=O)N[C@@H](Cc3ccc(OC(C)=O)cc3)C3=NC(C)(C)C(=O)O3)cc21` [Example 2-431, 4-[(S)-2-[(12-cyclohexyl-3-methoxy-6,7-dihydro-5-oxa-7a-azadibenzo[a,e]azulene-9-carbonyl)amino]-2-(4,4-dimethyl-5-oxo-4,5-dihydrooxazol-2-yl)ethyl]phenyl acetate], the half-inhibitory concentration (IC50) was below 100 nM.

`CCN(CCN1CCCOCC1)c1cccc2c1OCCn1c-2c(C2CCCCC2)c2ccc(C(=O)O)cc21` [Example 2-168, 12-cyclohexyl-4-{N-ethyl-N-[2-(1,4-oxazepan-4-yl)ethyl]amino}-6,7-dihydro-5-oxa-7a-azadibenzo[a,e]azulene-9-carboxylic acid dihydrochloride]: the IC50 is below 100 nM. In the case of `COCCCN(CCN1CCCCC1)c1cccc2c1OCCn1c-2c(C2CCCCC2)c2ccc(C(=O)O)cc21` [Example 2-342] it was below 100 nM.

With `CCOC(=O)c1ccc2c(c1)nc(C(C)(C)NC(=O)c1ccc3c(C4CCCCC4)c4n(c3c1)CCOc1ccccc1-4)n2C` [Example 2-329, ethyl 2-{1-[(12-cyclohexyl-6,7-dihydro-5-oxa-7a-azadibenzo[a,e]azulene-9-carbonyl)amino]-1-methylethyl}-1-methyl-1H-benzimidazole-5-carboxylate], the IC50 was below 100 nM. The value for `COCCNC(=O)[C@H](Cc1ccc(O)cc1)NC(=O)c1ccc2c(C3CCCCC3)c3n(c2c1)CCOc1cc(OC)ccc1-3` [Example 2-296, N—[(S)-2-(4-hydroxyphenyl)-1-(2-methoxyethylcarbamoyl)ethyl]-12-cyclohexyl-3-methoxy-6,7-dihydro-5-oxa-7a-azadibenzo[a,e]azulene-9-carboxamide] was below 100 nM; that for `O=C(O)c1ccc2c(c1)c1c(n2C2CCCCC2)-c2ccc(Cl)cc2N(CCN2CCCCC2)CC1` [Example 10-1, 3-chloro-12-cyclohexyl-5-[2-(piperidin-1-yl)ethyl]-5,6,7,12-tetrahydrobenzo[2,3]azepino[4,5-b]indole-9-carboxylic acid] was below 100 nM; that for `CCN1CCN(C(=O)CCCN2CCn3c(c(C4CCCCC4)c4ccc(C(=O)O)cc43)-c3ccccc32)CC1` [Example 1-62, 13-cyclohexyl-5-[4-(4-ethylpiperazin-1-yl)-4-oxobutyl]-6,7-dihydro-5H-benzo[5,6][1,4]diazepino[7,1-a]indole-10-carboxylic acid dihydrochloride] was below 100 nM.

`Cc1ccc2c(c1)N(CCN1CCCOCC1)CCn1c-2c(C2CCCCC2)c2ccc(C(=O)O)cc21` [Example 1-168, 13-cyclohexyl-3-methyl-5-[2-(1,4-oxazepan-4-yl)ethyl]-6,7-dihydro-5H-benzo[5,6][1,4]diazepino[7,1-a]indole-10-carboxylic acid] returned a concentration for half-maximal inhibition (IC50) below 100 nM. In the case of `COc1ccc2c(c1)OCCn1c-2c(C2CCCCC2)c2ccc(C(=O)NC(C)(C)c3ncc(-c4ccc(CO)cc4)[nH]3)cc21` [Example 2-545, N-{1-[5-(4-hydroxymethylphenyl)-1H-imidazol-2-yl]-1-methylethyl}-12-cyclohexyl-3-methoxy-6,7-dihydro-5-oxa-7a-azadibenzo[a,e]azulene-9-carboxamide] it was below 100 nM; in that of `CCCN(CCN1CCCCC1)c1cccc2c1OCCn1c-2c(C2CCCCC2)c2ccc(C(N)=O)cc21` [Example 2-300, 12-cyclohexyl-4-{N-[2-(piperidin-1-yl)ethyl]-N-propylamino}-6,7-dihydro-5-oxa-7a-azadibenzo[a,e]azulene-9-carboxamide], below 100 nM.
